Results taken from US10590413B2, “Chiral control” (WAVE LIFE SCIENCES LTD., priority 2012, dated 2020).
Like-named read-outs stand apart in the source and are kept apart here.

Tests used:
[1] = system: CpG-induced cytokine secretion; conditions: RALB/c spleen cells, 24 hr, ELISA, cited from earlier work; for IL-12 secretion: 2 × 10^7 cells/ml, indicated ODN alone; for CpG-S-induced IL-12 secretion: IL-12 secretion induced by addition of CpG ODN 1619 at 30 μg/ml
NK Lytic Activity = conditions: cited from earlier work
[2] = system: human B cell proliferation; conditions: human spleen cells or PBNC, ODN at 6 μml, 4-7 days, 3H thymidine, cited from earlier work
(Ap)9A = conditions: duplex with (Ap)9A; cited from earlier work
[3] = system: Murine IL-6 production and B cell activation; conditions: cited from earlier work; for IL-6 (pg/ml) CH12.LX: CH12.LX cells; for IL-6 (pg/ml) SPLENIC B CELL: splenic B cells
[4] = oligo 1619 alone or with a second "bad" CpG oligonucleotide added; cited from earlier work
NK activity = conditions: cited from earlier work
[5] = system: ODN-induced cytokine expression; conditions: ELISA on supernatants from DBA/2 spleen cells, 2 × 10^7 cells/ml, 24 hr, ODN at 30 μg/ml; cited from earlier work
human PBMC = conditions: cited from earlier work
[6] = system: Mouse Apolipoprotein B/GAPDH mRNA; assay: Apolipoprotein B mRNA assay in transfected mouse primary hepatocytes (Example 88); assay type: cell-based
Method: C57BL6 male mice, 7 weeks of age were used to extract and plate mouse primary hepatocytes in 96-well plates (without overlay) (Celsis/Bioreclamation IVT). Transfection of primary hepatocytes was carried out with lipofectin (Life Technologies, cat. No. 18292-037) using the manufacturer's protocol, using 0.5 ul of Lipofectin per 96-plate well. Twelve, 1:3 siRNA duplex dilutions were created starting at 6 uM. 10 ul of 10× oligo was then lipoplexed with a prepared mixture of 9.5 ul of In vitro Gro HI Medium (Celsis Cat. Z99009) serum-free medium and 0.5 ul of Lipofectin per well. After a 10-15 minute incubation, 20 ul of lipoplexed oligo was added to primary hepatocytes in 80 ul of In vitro Gro HI Medium to bring the final volume to 100 ul per well. 24 hours after transfection, cells were lysed.
Total mRNA was purified from cell lysates using MagMAX™-96 Total RNA Isolation Kit (Life Technologies, AM1830); 15 ul of cDNA was synthesized with High Capacity cDNA Reverse Transcription Kit with RNase Inhibitor (Life Technologies, 4374967). Gene expression was evaluated by Real-Time PCR on a Lightcycler 480 (Roche) using a Probes Master Mix (Roche, 04 707 494 001) according to manufacturer's protocol using the following primers: Mouse apolipoprotein B primers:
[Template: (GenBank Accession Number M35186)]
The delta delta Ct method was used to calculate values. […]

NK LU = conditions: PBMC, phosphorothioate ODN, cited from earlier work
B cell proliferation = B cell proliferation induced by a stimulatory CpG motif; oligonucleotide added alone or with inhibitory ODN 1735; cited from earlier work
CD86 = conditions: US 6,218,371 Table 3; cited from earlier work
T cell proliferation = conditions: US 6,218,371 Table 3; cited from earlier work
CD40 = conditions: US 6,218,371 Table 3; cited from earlier work
[7] = unstimulated control ≤10 pg/ml, US 6,239,116 Table 2
[8] = ODN 12 μg/ml, 24 hr, 10% autologous serum, level above wells with no ODN, ELISA

Substance: 1896 (DNA CCGGCCGGCCGGCCGGCCGG; chemistry not given here) [Oligonucleotide 1896]
- IL-12 secretion [1]: 292 pg/mL
- CpG-S-induced IL-12 secretion [1]: 2740 pg/mL

Substance: 1841 (DNA TCCATAGCGTTCCTAGCGTT; chemistry not given here) [Oligonucleotide 1841]
- NK Lytic Activity (LU) (NK Lytic Activity; human PBMC cultured with ODN 6 μg/ml for 24 hr, lysis of 51Cr-labeled K562 cells): 1.45 LU
- LU (NK lytic activity) (NK Lytic Activity; human PBMC, ODN 6 μg/ml for 24 hr, lysis of Cr-labeled K562 cells, cells alone 0.01): 1.45 LU
- Stimulation Index, expt. 1 ([2]; US 6,214,806 Table 6): 3
- Stimulation Index, expt. 1 ([2]; US 6,239,116 Table 12): 3

Substance: 2037 (DNA TCCATGCCGTTCCTGCCGTT; chemistry not given here) [Oligonucleotide 2037]
- IL-12 secretion [1]: 423 pg/mL
- CpG-S-induced IL-12 secretion [1]: 2847 pg/mL

Substance: 1959 (DNA GCGGCGGGCGGCGCGCGCCC; chemistry not given here) [Oligonucleotide 1959]
- IL-12 secretion [1]: 270 pg/mL
- CpG-S-induced IL-12 secretion [1]: 2539 pg/mL

Substance: (Sp)-(Ups)9U
- Tm value of duplex compared with natural-(Up)9U/(Ap)9A ((Ap)9A): did not form a duplex

Substance: 1895 (DNA GCGCGCGCGCGCGCGCGCGC; chemistry not given here) [Oligonucleotide 1895]
- IL-12 secretion [1]: 123 pg/mL
- CpG-S-induced IL-12 secretion [1]: 2719 pg/mL

Substance: 1619 (DNA TCCATGTCGTTCCTGATGCT; chemistry not given here) [Oligonucleotide 1619]
- IL-6 (pg/ml) CH12.LX [3]: 1555 ± 304 pg/mL
- IL-6 (pg/ml) CH12.LX [3, 7]: 1555 ± 304 pg/mL
- SI (stimulation index, [3H] uridine uptake, fold increase from unstimulated control) ([3]; cells stimulated with 20 μM CpG O-ODN, mean ± SD of triplicates): 12.5 ± 1.0
- SI (stimulation index, [3H] uridine uptake) ([3]; fold increase from unstimulated control, 20 μM CpG O-ODN, mean ± SD of triplicates): 12.5 ± 1.0
- IgM ([3]; measured by ELISA, unstimulated culture 547 ± 82 ng/ml): 8243 ± 698 ng/mL
- IL-6 (pg/ml) SPLENIC B CELL [3]: 2908 ± 129 pg/mL
- IL-6 (pg/ml) SPLENIC B CELL [3, 7]: 2908 ± 129 pg/mL
- IL-12 in pg/ml [4]: 6 pg/mL
- LU/10^6, Mouse Cells (NK activity; Expt. 3, None = 0.00): 3.35 LU/10^6
- NK activity LU/10^5 Mouse Cells (NK activity; Table 3 of U.S. Pat. No. 6,214,806): 3.35 LU/10^5
- NK activity LU/10^6 Mouse Cells (NK activity; Table 9 of U.S. Pat. No. 6,207,646): 3.35 LU/10^6
- ODN-induced cytokine expression IFN-γ [5]: 4628 pg/mL
- ODN-induced cytokine expression IL-6 [5]: 1405 pg/mL
- ODN-induced cytokine expression IL-12 [5]: 3130 pg/mL
- TNF-α (human PBMC; ODN 12 μg/ml, 4 hr, 10% autologous serum, level above wells with no ODN, ELISA): 450 pg/mL
- GM-CSF (human PBMC; [8]): 80 pg/mL
- IFN-γ (human PBMC; [8]): 200 pg/mL
- IL-6 (human PBMC; [8]): 275 pg/mL
- IL-12 (human PBMC; [8]): 450 pg/mL
- GM-CSF (human PBMC): 80
- IFN-γ (human PBMC): 200
- IL-6 (human PBMC): 275
- IL-12 (human PBMC): >500
- TNF-α (human PBMC): 450

Substance: (All(Rp))-GsTs5mCs5mCs5mCsTsGsAsAsGsAsTsGsTs5mCsAsAsTsGs5mC (DNA GTCCCTGAAGATGTCAATGC; chemistry not fully specified) [ONT-82]
- IC50 ([6]; relative IC50, bottom 0 and top 100 constrained, read-out: IC50 for Suppression of Mouse Apolipoprotein B/GAPDH mRNA Levels): 64.4 nM
- Hill Slope ([6]; suppression of ApoB/GAPDH mRNA, bottom 0 and top 100 constrained): −0.3

Substance: (Rp)-(Ups)9U
- Tm value of duplex compared with natural-(Up)9U/(Ap)9A ((Ap)9A): higher Tm value

Substance: 1963 (DNA TCCTTGTCGTTCCTGTCGTT; DNA, all phosphorothioate, methylation of C not given here) [Oligonucleotide 1963]
- NK LU, expt. 1 (NK LU; expt. 1 (one donor), US 6,214,806 Table 5): 3.42 LU
- NK LU, expt. 1 (NK LU; expt. 1, cells alone 0.00, US 6,239,116 Table 11): 3.42 LU
- Stimulation Index, expt. 1 ([2]; US 6,214,806 Table 6): 3
- Stimulation Index, expt. 1 ([2]; US 6,239,116 Table 12): 3

Substance: 1720 (DNA 1720 (TCCATGAGCTTCCTGATGCT); as printed in the source, key not given here) [Oligonucleotide 1720]
- cpm (B cell proliferation) (B cell proliferation): 601 cpm

Substance: 1953 (DNA TCCATGTCGTTCCTGCCGCT; chemistry not given here) [Oligonucleotide 1953]
- ODN-induced cytokine expression IFN-γ [5]: 2000 pg/mL
- ODN-induced cytokine expression IL-6 [5]: 557 pg/mL
- ODN-induced cytokine expression IL-12 [5]: 1854 pg/mL

Substance: 1952 (DNA TCCATGTCGTTCCGCGCGCG; chemistry not given here) [Oligonucleotide 1952]
- ODN-induced cytokine expression IFN-γ [5]: 2135 pg/mL
- ODN-induced cytokine expression IL-6 [5]: 559 pg/mL
- ODN-induced cytokine expression IL-12 [5]: 1615 pg/mL

Substance: GM-CSF
- CD86 (5 Exp) (CD86): 1.9
- T cell proliferation (T cell proliferation): 13.3
- CD40 (4 Exp.) (CD40): 2.5
